# Data from paper PMC9080489, “Synthesis and biological evaluation of 2-aryl-benzimidazole derivatives of dehydroabietic acid as novel tubulin polymerization inhibitors” (RSC Advances, 2018).
# Read-outs that look alike come from different tables or passages of the source.
# Legend:
# [1] = test system: human hepatocarcinoma cell line (SMMC-7721); assay: MTT cytotoxic assay, SMMC-7721; assay type: cell-based; conditions: MTT, 48 h exposure, read-out: IC50 SMMC-7721
# Procedure: (§1) The in vitro antiproliferative activity of DAA derivatives (1–5, 6a–k, 7a–k) were evaluated by MTT assay against human hepatocarcinoma cell line (SMMC-7721), human breast cancer cell line (MDA-MB-231), human cervical carcinoma cell line (HeLa), mouse colon cancer cell line (CT-26) and human normal hepatocyte cell line (QSG-7701). Nocodazole was co-assayed as the positive control and DMEM culture medium containing 0.1% DMSO was used as negative control. The results of the tested compounds expressed as IC50 values (concentration required to inhibit tumor cell proliferation by 50%) were presented in Table 1.
# (§2) The human hepatocarcinoma cell line (SMMC-7721), human breast cancer cell line (MDA-MB-231), human cervical carcinoma cell line (HeLa), mouse colon cancer cell line (CT-26) and human normal hepatocyte cells (QSG-7701) used in this study were all obtained from Keygene Biotech., China. These cell lines were maintained in DMEM medium supplemented with 10% heat-inactivated fetal bovine serum in a humidified atmosphere of 5% CO2 at 37 °C.
# (§3) The in vitro cytotoxic activities of the benzimidazole derivatives of dehydroabietic acid were evaluated against tested cell lines via the MTT colorimetric method. Briefly, different tumor cells were grown in DMEM medium supplemented with 10% fetal bovine serum, penicillin (100 U mL^−1), and streptomycin (50 μg mL^−1). Cells were harvested at log phase of growth and seeded in 96-well plates (100 μL per well at a density of 2 × 10^5 cells mL^−1). After 24 h incubation at 37 °C and 5% CO2 to allow cell attachment, cultures were exposed to various concentrations of the isolated compounds for 48 h. Finally, MTT solution (2.5 mg mL^−1 in PBS) was added (40 μL per well). Plates were further incubated for 4 h at 37 °C, and the formazan crystals formed were dissolved by adding 150 μL per well of DMSO. Absorption at 570 nm was measured with an ELISA plate reader. The results were expressed as IC50 values with standard deviations, which was defined as the concentration at which 50% survival of cells was discerned. Nocodazole was co-assayed as positive control.
# [2] = test system: human breast cancer cell line (MDA-MB-231); assay: MTT cytotoxic assay, MDA-MB-231; assay type: cell-based; conditions: MDA-MB-231, MTT, 48 h exposure, read-out: IC50 MDA-MB-231
# Procedure: as §1, §2, §3
# [3] = test system: human cervical carcinoma cell line (HeLa); assay: MTT cytotoxic assay, HeLa; assay type: cell-based; conditions: MTT, 48 h exposure, read-out: IC50 HeLa
# Procedure: as §1, §2, §3
# [4] = test system: mouse colon cancer cell line (CT-26); assay: MTT cytotoxic assay, CT-26; assay type: cell-based; conditions: MTT, 48 h exposure, read-out: IC50 CT-26
# Procedure: as §1, §2, §3
# [5] = test system: human normal hepatocyte cell line (QSG-7701); assay: MTT cytotoxic assay, QSG-7701; assay type: cell-based; conditions: QSG7701, 48 h exposure
# Procedure: as §1, §2, §3
# [6] = biological target: T1, Porcine brain tubulin (Sus scrofa, UniProt P02550+P02554); assay: In vitro tubulin polymerization inhibition assay (OD340); assay type: biochemical; conditions: 10 μM, 37 °C, 1 h, versus blank control
# T1 construct: purchased Cytoskeleton, Inc. BK004P; host or cells: porcine brain tissue
# T1 sequence (P02554 whole entry): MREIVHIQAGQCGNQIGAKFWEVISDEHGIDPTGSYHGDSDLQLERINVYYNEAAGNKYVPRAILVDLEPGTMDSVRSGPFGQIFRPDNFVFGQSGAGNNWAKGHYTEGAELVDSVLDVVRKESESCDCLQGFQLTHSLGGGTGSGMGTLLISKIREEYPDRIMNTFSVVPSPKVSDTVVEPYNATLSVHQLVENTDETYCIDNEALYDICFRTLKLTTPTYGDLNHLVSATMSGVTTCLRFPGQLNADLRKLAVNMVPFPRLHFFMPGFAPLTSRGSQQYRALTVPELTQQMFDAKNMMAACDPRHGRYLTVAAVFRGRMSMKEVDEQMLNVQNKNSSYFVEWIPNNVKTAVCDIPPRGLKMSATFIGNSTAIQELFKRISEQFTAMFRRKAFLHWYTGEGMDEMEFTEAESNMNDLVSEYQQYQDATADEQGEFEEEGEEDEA
# T1 sequence (P02550 whole entry): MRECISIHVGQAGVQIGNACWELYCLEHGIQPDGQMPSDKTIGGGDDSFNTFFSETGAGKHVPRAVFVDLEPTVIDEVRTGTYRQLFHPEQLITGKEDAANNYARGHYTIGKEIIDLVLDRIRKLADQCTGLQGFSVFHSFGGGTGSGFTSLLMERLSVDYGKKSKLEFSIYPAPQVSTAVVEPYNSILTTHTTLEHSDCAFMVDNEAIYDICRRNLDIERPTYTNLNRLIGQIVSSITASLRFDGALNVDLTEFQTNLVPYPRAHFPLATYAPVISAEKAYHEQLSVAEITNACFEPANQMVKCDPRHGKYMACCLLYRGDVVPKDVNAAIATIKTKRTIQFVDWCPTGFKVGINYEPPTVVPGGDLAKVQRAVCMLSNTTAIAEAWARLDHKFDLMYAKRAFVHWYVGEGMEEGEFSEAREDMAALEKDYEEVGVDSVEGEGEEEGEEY
# Procedure: The in vitro tubulin polymerization inhibition assay was carried out by using the Tubulin Polymerization Assay Kit (Cytoskeleton, Inc., USA) according to the protocol in the manual. Porcine brain tubulin was incubated with compound 6j at concentrations of 5 and 10 μM. The positive control colchicine and negative control taxol were co-assayed at the concentration of 10 μM, and G-PEM buffer was used as the blank control.
# The tubulin polymerization assay was accomplished using a commercial assay kit (cat. #BK004P) purchased from Cytoskeleton, Inc. (Danvers, MA, USA). Tubulin isolated from porcine brain tissue was used in this tubulin polymerization assay kit. Tubulin polymerizations are followed by an increase in optical density at 340 nm (OD340) over a 60 min period at 37 °C due to the light scattered by microtubule polymer. At first, tubulin (4 mg) was disovled in 1 mL of G-PEM buffer containing 80 mM piperazine-N,N′-bis(2-ethanesulfonic acid) sequisodium salt (PIPES, pH 6.9), 2.0 mM MgCl2, 0.5 mM EGTA and 1 mM GTP to prepare tubulin solution. Subsequently, 10 μL of 10 × stock solutions of the tested compounds at different concentrations were added to a prewarmed 96-well plate and incubated at 37 °C for 2 min, then 90 μL of tubulin solution was also added into each well to initiate the reaction. The optical intensity (OD340) of each well was recorded every 60 s for 60 min (Cytation 3 Cell Imaging Multi-Mode Reader, BioTek Instruments, Inc., USA). Colchicine and taxol were co-assayed as the positive control and negative control, respectively. G-PEM buffer was used as the blank control.
Structure (SMILES),melting point [°C],"IC50 ([1]; Homo sapiens, SMMC-7721, 48 h) [µM]",IC50 [2] [µM],IC50 [3] [µM],"IC50 ([4]; Mus musculus, CT26, 48 h) [µM]",IC50 [5] [µM],IC50 [1] [µM],IC50 [4] [µM],effect on tubulin polymerization speed and final absorbance (OD340) [6]
"COC(=O)[C@]1(C)CCC[C@]2(C)c3cc(-c4cc(OC)c(OC)c(OC)c4)c4nc(-c5ccccc5)[nH]c4c3CCC12 (some centres unmarked) [Compound 7a, Methyl 2′-phenyl-12-(3,4,5-trimethoxyphenyl)-13,14-imidazolyl-deisopropyl-dehydroabietate]",153 to 155,9.38 ± 1.02,> 50,13.1 ± 1.7,8.25 ± 0.5,> 50,,,
"COC(=O)[C@]1(C)CCC[C@]2(C)c3cc(-c4cc(OC)c(OC)c(OC)c4)c4nc(-c5ccc(F)cc5)[nH]c4c3CCC12 (some centres unmarked) [Compound 7c, Methyl 2′-(4-fluorophenyl)-12-(3,4,5-trimethoxyphenyl)-13,14-imidazolyl-deisopropyl-dehydroabietate]",139 to 141,< 5,0.69 ± 0.21,7.63 ± 1.03,8.95 ± 0.17,36.1 ± 2.32,3.29 ± 0.13,,
"CC(=O)O[C@H]1C(=O)[C@@]2(C)[C@H]([C@H](OC(=O)c3ccccc3)[C@]3(O)C[C@H](OC(=O)[C@H](O)[C@@H](NC(=O)c4ccccc4)c4ccccc4)C(C)=C1C3(C)C)[C@]1(OC(C)=O)CO[C@@H]1C[C@@H]2O [taxol, reference compound]",,,,,,,,,obviously increased the speed of tubulin polymerization and the final absorbance

# Now from value to compound, other results behind:
melting point [°C],Structure (SMILES),"IC50 ([1]; Homo sapiens, SMMC-7721, 48 h) [µM]",IC50 [2] [µM],IC50 [3] [µM],"IC50 ([4]; Mus musculus, CT26, 48 h) [µM]",IC50 [5] [µM],IC50 [1] [µM],IC50 [4] [µM],effect on tubulin polymerization speed and final absorbance (OD340) [6]
156 to 158,"COC(=O)[C@]1(C)CCC[C@]2(C)c3cc(-c4cc(OC)c(OC)c(OC)c4)c4nc(-c5cccc(F)c5)[nH]c4c3CCC12 (some centres unmarked) [Compound 7d, Methyl 2′-(3-fluorophenyl)-12-(3,4,5-trimethoxyphenyl)-13,14-imidazolyl-deisopropyl-dehydroabietate]",> 50,6.42 ± 0.04,12.9 ± 1.26,< 5,> 50,,2.7 ± 0.12,
168 to 170,"COC(=O)[C@]1(C)CCC[C@]2(C)c3cc(-c4cc(OC)c(OC)c(OC)c4)c4nc(-c5ccc(Cl)cc5)[nH]c4c3CCC12 (some centres unmarked) [Compound 7f, Methyl 2′-(4-chlorophenyl)-12-(3,4,5-trimethoxyphenyl)-13,14-imidazolyl-deisopropyl-dehydroabietate]",11 ± 2.68,10.1 ± 1.38,17.2 ± 2.32,< 5,> 50,,3.44 ± 0.75,
150 to 152,"COC(=O)[C@]1(C)CCC[C@]2(C)c3cc(-c4cc(OC)c(OC)c(OC)c4)c4nc(-c5ccc(Br)cc5)[nH]c4c3CCC12 (some centres unmarked) [Compound 7h, Methyl 2′-(4-bromophenyl)-12-(3,4,5-trimethoxyphenyl)-13,14-imidazolyl-deisopropyl-dehydroabietate]",> 50,8.84 ± 1.08,29.9 ± 3.07,< 5,> 50,,2.76 ± 0.26,
